Assay results from patent publication US20060040905A1 (priority 2002, published 2006).

Tests used:
[1] = stability in solution across pH range; assay type: physicochemical; settings: wide pH range (4-7) including pH 5.5-6.5
From the text: (§1) Nefopam may thus be rapidly and completely absorbed from the nasal cavity and provide the rapid onset of action required to bring pain relief.

solubility = assay type: physicochemical
From the text: as §1

mouse tail-flick test = settings: cited from earlier work
[2] = stability with excipients individually; assay type: physicochemical
[3] = test system: Randall-Selitto pressure test; settings: rats; cited from earlier work
[4] = test system: nasal epithelial cell-line (RPMI 2650); assay: cytotoxicity against nasal epithelial cell-line; assay type: cell-based; settings: RPMI 2650 cells; even at high concentrations (>5 mM)
hot plate test = settings: in vivo; cited from earlier work
[5] = in vivo; cited from earlier work

stability in solution [1]: stable in solution
solubility (solubility): highly soluble
stability with all the excipients individually ([2]; 4 weeks incubation at 25° C.): demonstrated
stability with all the excipients individually ([2]; 4 weeks incubation at 50° C.): demonstrated
SMILES: CN1CCOC(c2ccccc2)c2ccccc2C1 (racemic) [nefopam]
activity in mouse tail-flick test (mouse tail-flick test): not active
activity in Randall-Selitto pressure test [3]: not active
cytotoxicity [4]: no cytotoxicity
activity in hot plate test (hot plate test): not active
elimination half-life [5]: four
